Source: patent US20190315823A1, “SMALL CATIONIC ANTI-BIOFILM AND IDR PEPTIDES” (priority 2013, published 2019)
Like-named read-outs stand apart in the source and are kept apart here. Marks after values point to notes of the source that are not given here. Ends that are not written are not given here. Peptide text beside a SMILES is read from it.

Assays:
P. aeruginosa biofilm = assay type: cell-based; settings: biofilm
Method: Methods of assessment of anti-biofilm activity—Biofilm formation was initially analyzed using a static abiotic solid surface assay as described elsewhere (de la Fuente-Nunez et al., 2012). […] Planktonic cells were removed, biofilm cells adhering to the side of the tubes were stained with crystal violet, and absorbance at 595 nm was measured using a microtiter plate reader (Bio-Tek Instruments Inc., United States). Some peptides were screened against two Gram negative organisms, P. aeruginosa and K. pneumoniae using a Bioflux apparatus (AutoMate Scientific, Berkeley, Calif.; http://www.autom8.com/bioflux_biofilm.html), which allows for the high-throughput, real-time analysis of biofilms.

[1] = test system: human peripheral blood mononuclear cells (MCP-1); test: SPOT-synthesized derivative screen: production of chemokine MCP-1; assay type: cell-based; settings: No LPS
Outline: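 MCP-1 was quantified by capture ELISA in cleared culture supernatants of treated human peripheral blood mononuclear cells. Cells came from heparinized volunteer blood via Ficoll gradient and were seeded at 0.75 to 1×10^6 cells/ml (37 °C, 5% CO2).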

[2] = test system: LPS-stimulated human peripheral blood mononuclear cells (IL1-β); assay type: cell-based; settings: cells stimulated with 10 ng/ml LPS; for IL1β Production: LPS alone 1313 (HH2 derivatives), 1927 (1018 derivatives), 2455 (1002 and hybrid peptides) pg/ml; for IL1β Production (pg/ml): LPS alone 984 pg/ml, starred values (1002-2013) determined separately, LPS alone 889 pg/ml
S. aureus biofilms = test: checkerboard titration biofilm synergy (MBIC, FIC); assay type: cell-based
Method: Peptides and various conventional antibiotics were analyzed by checkerboard titration into microtiter trays using CLSI methods (Wiegand, I., K. Hilpert, and R. E. W. Hancock. 2008. Nature Protocols 3:163-175), bacteria added and, after overnight incubation at 37° C., the residual biofilm assessed by the crystal violet method mentioned in the body of the grant, with an A595 of 0.2 considered as 100% biofilm inhibition. The effects of the peptide in reducing the minimal biofilm inhibitory concentration (MBIC) of the antibiotic and vice versa were assessed using the Fractional Inhibitory Concentration (FIC) method whereby ΣFTC=FICA+FICB=(CA/MICA)+(CB/MICB), where MBICA and MBICB are the MBICs of peptide A and antibiotic B alone, respectively, and CA and CB (expressed in μg/ml) are the MICs of the drugs in combination. This conventional clinical microbiology assay is interpreted as follows

[3] = test system: methicillin resistant Staphylococcus aureus (MRSA) biofilm; settings: approximate peptide concentration […] (around 3 μg/ml); compared to untreated samples
Outline: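 Peptide was present from inoculation onward, with bacteria seeded at 1/100 from overnight cultures into BM2 biofilm medium or Luria Broth. Crystal violet staining of surface-attached cells (A595) quantified biofilm reduction at 22–46 h. K. pneumoniae was additionally screened in a real-time Bioflux flow device for some peptides.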

[4] = Table 12, human PBMC, peptide at ~18-24 μM
[5] = Table 12, human PBMC, peptide at ~18-24 μM, background subtracted 139 (HH2 derivatives), 170 (1018 derivatives), 242 (1002 and hybrid peptides) pg/ml
[6] = Table 12A, background subtracted (21.3 pg/ml)
[7] = Table 12A, 1002-2013 compared to LPS control of 889 pg/ml

Row | Molecule | MBIC50 P. aeruginosa (P. aeruginosa biofilm) [µg/mL] | Fold increase in MCP1 cf. untreated cells [1, 4] | MCP1 [1, 5] [pg/mL] | Fold increase in MCP1 cf. untreated cells ([1]; Table 12A) | MCP1 [1, 6] [pg/mL] | Fold change in IL1β relative to no peptide LPS stimulated cells ([2]; Table 12) | IL1β Production ([2]; Table 12) [pg/mL] | Fold change in IL1β relative to no peptide LPS stimulated cells [2, 7] | IL1β Production (pg/ml) ([2]; Table 12A) | FIC (S. aureus biofilms; antibiotic in combination with peptide DJK6) | Fold decrease in antibiotic concentration (S. aureus biofilms; in the presence of peptide DJK6) | % Biofilm inhibition [3] [%]
1 | CC[C@H](C)[C@H](NC(=O)[C@H](CCCNC(=N)N)NC(=O)[C@H](CC(C)C)NC(=O)[C@H](CCC(N)=O)NC(=O)[C@@H](N)C(C)C)C(=O)N[C@@H](CCCNC(=N)N)C(=O)N[C@H](C(=O)N[C@@H](C)C(=O)N[C@H](C(=O)N[C@H](C(=O)N[C@@H](CCCNC(=N)N)C(=O)N[C@@H](C)C(N)=O)[C@@H](C)CC)C(C)C)C(C)C [HH2] (H-VQLRIRVAVIRA-NH2; N-terminus assumed) | >80 | 3.6 | 450 | 43 | 896 | 1.00 | 1307 | 0.53 | 469* pg/ml |  |  | 
2 | CC[C@H](C)[C@H](NC(=O)[C@H](CCCNC(=N)N)NC(=O)[C@H](CC(C)C)NC(=O)[C@H](CCC(N)=O)NC(=O)[C@@H](N)C(C)C)C(=O)N[C@@H](CCCNC(=N)N)C(=O)N[C@H](C(=O)N[C@@H](CCCCN)C(=O)N[C@H](C(=O)N[C@H](C(=O)N[C@@H](CCCNC(=N)N)C(=O)N[C@@H](CCCCN)C(N)=O)[C@@H](C)CC)C(C)C)C(C)C [Peptide 2011] (H-VQLRIRVKVIRK-NH2; N-terminus assumed) | 10 |  |  | 38 | 796 |  |  | 0.62 | 550* pg/ml |  |  | 
3 | CC[C@H](C)[C@H](NC(=O)[C@H](CCCNC(=N)N)NC(=O)[C@H](Cc1c[nH]c2ccccc12)NC(=O)[C@H](CCCNC(=N)N)NC(=O)[C@@H](NC(=O)[C@H](CC(C)C)NC(=O)[C@H](CC(C)C)NC(=O)[C@H](CCCNC(=N)N)NC(=O)[C@H](Cc1c[nH]c2ccccc12)NC(=O)[C@@H](N)CCCCN)[C@@H](C)CC)C(=O)N[C@@H](CCC(N)=O)C(=O)N[C@@H](CCCCN)C(N)=O [Peptide 2009] (H-KWRLLIRWRIQK-NH2; N-terminus assumed) | 2.5 |  |  | 586 | 12475 |  |  | 0.08 | 74* pg/ml |  |  | 
4 | CC[C@H](C)[C@H](NC(=O)[C@H](CCCNC(=N)N)NC(=O)[C@H](Cc1c[nH]c2ccccc12)NC(=O)[C@@H](NC(=O)[C@@H](NC(=O)[C@H](CC(C)C)NC(=O)[C@H](Cc1c[nH]c2ccccc12)NC(=O)[C@H](CCCNC(=N)N)NC(=O)[C@H](CCC(N)=O)NC(=O)[C@@H](N)C(C)C)[C@@H](C)CC)C(C)C)C(=O)N[C@@H](CCCNC(=N)N)C(=O)N[C@@H](CCCCN)C(N)=O [Peptide 1002] (H-VQRWLIVWRIRK-NH2; N-terminus assumed) | 5 | 3.5 | 603.2 | 576 | 11994 | 0.05 | 127 | 0.13 | 111* pg/ml |  |  | 
5 | CN[C@H](CC(C)C)C(=O)N[C@H]1C(=O)N[C@@H](CC(N)=O)C(=O)N[C@H]2C(=O)N[C@H]3C(=O)N[C@H](C(=O)N[C@H](C(=O)O)c4cc(O)cc(O)c4-c4cc3ccc4O)[C@H](O)c3ccc(c(Cl)c3)Oc3cc2cc(c3O[C@@H]2O[C@H](CO)[C@@H](O)[C@H](O)[C@H]2O[C@H]2C[C@](C)(N)[C@H](O)[C@H](C)O2)Oc2ccc(cc2Cl)[C@H]1O [Vancomycin] |  |  |  |  |  |  |  |  |  | 0.4 | 16 | 
6 | CC[C@H](C)[C@H](NC(=O)[C@H](CCCNC(=N)N)NC(=O)[C@H](Cc1c[nH]c2ccccc12)NC(=O)[C@H](CCCNC(=N)N)NC(=O)[C@@H](NC(=O)[C@H](CC(C)C)NC(=O)[C@H](Cc1c[nH]c2ccccc12)NC(=O)[C@H](CCCNC(=N)N)NC(=O)[C@H](CCC(N)=O)NC(=O)[C@@H](N)CCCCN)[C@@H](C)CC)C(=O)N[C@@H](CCCNC(=N)N)C(=O)N[C@@H](CCCCN)C(N)=O [Peptide 2010] (H-KQRWLIRWRIRK-NH2; N-terminus assumed) | 2.5 |  |  | 266 | 5649 |  |  | 0.42 | 377* pg/ml |  |  | 
7 | 1002-L7: single substituted 1002 peptide (VQRWLILWRIRK-NH2) [Peptide 1002-L7] |  | 1.8 | 199.1 |  |  | 0.05 | 127 |  |  |  |  | 57
8 | 1018-V3: single substituted 1018 peptide (VRVIVAVRIWRR-NH2) [Peptide 1018-V3] |  | 16 | 2550 |  |  | 0.22 | 295 |  |  |  |  | 76
9 | HH2-W3: single substituted HH2 peptide (VQWRIRVAVIRA-NH2) |  | 21 | 3418 |  |  | 0.67 | 874 |  |  |  |  | 62
10 | HH2-K4: single substituted HH2 peptide (VQLKIRVAVIRA-NH2) |  | 10 | 1553 |  |  | 0.58 | 759 |  |  |  |  | 65
11 | 1002-W11: single substituted 1002 peptide (VQRWLIVWRIWK-NH2) [Peptide 1002-W11] |  | 0.9 | -36.2 |  |  | 0.05 | 127 |  |  |  |  | 37
12 | 1018-K7: single substituted 1018 peptide (VRLIVAKRIWRR-NH2) [Peptide 1018-K7] |  | 1.5 | 92 |  |  | 0.93 | 1222 |  |  |  |  | 23
13 | 1018-W6: single substituted 1018 peptide (VRLIVWVRIWRR-NH2) [Peptide 1018-W6] |  | 0.7 | -54 |  |  | 0.24 | 310 |  |  |  |  | 75
14 | 1002-A6: single substituted 1002 peptide (VQRWLAVWRIRK-NH2) [Peptide 1002-A6] |  | 3.0 | 485.3 |  |  | 0.16 | 382 |  |  |  |  | 28
15 | 1018-G4: single substituted 1018 peptide (VRLGVAVRIWRR-NH2) [Peptide 1018-G4] |  | 1.2 | 32 |  |  | 0.39 | 511 |  |  |  |  | 63
16 | HH2-I6: single substituted HH2 peptide (VQLRIIVAVIRA-NH2) |  | 8.1 | 1206 |  |  | 0.75 | 984 |  |  |  |  | 45
